From ChEMBL document CHEMBL1201862, “PubChem BioAssay data set” (2004)
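Values below derive from 48-hour exposures of cells grown in 96-well plates, with endpoints linearly interpolated between the two concentrations bracketing the appropriate inhibition level. At the GI50, growth is halved.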 Active and inactive are the calls of the source. Rule as the data show it: active = GI50 up to about 1.1 µM and inactive = higher.

Tests used:
Assay in all cases: NCI anticancer screen, dose series, 48 h
TK-10 = system: TK-10
M14 = system: M14
RPMI-8226 = system: RPMI-8226
UO-31 = system: UO-31
HOP-92 = system: HOP-92
OVCAR-8 = system: OVCAR-8
NCI-H460 = system: NCI-H460
NCI-H226 = system: NCI-H226
SW-620 = system: SW-620
OVCAR-5 = system: OVCAR-5
ACHN = system: ACHN
Malme-3M = system: Malme-3M
U-251 = system: U-251
KM12 = system: KM12
RXF 631 = system: RXF 631
UACC-257 = system: UACC-257
SNB-19 = system: SNB-19
A498 = system: A498
HL-60 = system: HL-60
HT-29 = system: HT-29
SF-268 = system: SF-268
HCT-15 = system: HCT-15
SF-295 = system: SF-295
HCT-116 = system: HCT-116
IGROV-1 = system: IGROV-1
786-0 = system: 786-0
UACC-62 = system: UACC-62
SR = system: SR
KM-20L2 = system: KM-20L2
A549 = system: A549
SK-OV-3 = system: SK-OV-3
OVCAR-4 = system: OVCAR-4
NCI-H23 = system: NCI-H23
EKVX = system: EKVX
SNB-78 = system: SNB-78
DMS-114 = system: DMS-114
COLO 205 = system: COLO 205
M19-MEL = system: M19-MEL
DMS-273 = system: DMS-273
RXF 393 = system: RXF 393
SF-539 = system: SF-539
DLD-1 = system: DLD-1
SK-MEL-2 = system: SK-MEL-2
OVCAR-3 = system: OVCAR-3
LXFL 529 = system: LXFL 529
SN12C = system: SN12C
NCI-H522 = system: NCI-H522
LOX IMVI = system: LOX IMVI
HCC 2998 = system: HCC 2998
HOP-18 = system: HOP-18
CAKI-1 = system: CAKI-1
HOP-62 = system: HOP-62
K562 = system: K562
CCRF-CEM = system: CCRF-CEM
MOLT-4 = system: MOLT-4
XF498 = system: XF498
SK-MEL-5 = system: SK-MEL-5
SNB-75 = system: SNB-75
SK-MEL-28 = system: SK-MEL-28

Question: With `NCCNc1cccc2ccccc12` as the molecule, how does the GI50 (TK-10) read?
Answer: > 100 µM (inactive)

Question: And the GI50 (M14)?
Answer: > 100 µM (inactive)

Question: And the GI50 (RPMI-8226)?
Answer: > 100 µM (inactive)

Question: And the GI50 (UO-31)?
Answer: > 100 µM (inactive)

Question: What about the GI50 (HOP-92) of the same molecule?
Answer: > 100 µM (inactive)

Question: And the GI50 (OVCAR-8)?
Answer: > 100 µM (inactive)

Question: What about the GI50 (NCI-H460) of the same molecule?
Answer: > 100 µM (inactive)

Question: What about the GI50 (NCI-H226) of the same molecule?
Answer: > 100 µM (inactive)

Question: What about the GI50 (SW-620) of the same molecule?
Answer: > 100 µM (inactive)

Question: What about the GI50 (OVCAR-5) of the same molecule?
Answer: > 100 µM (inactive)

Question: What about the GI50 (ACHN) of the same molecule?
Answer: > 100 µM (inactive)

Question: And the GI50 (Malme-3M)?
Answer: > 100 µM (inactive)

Question: What about the GI50 (U-251) of the same molecule?
Answer: > 100 µM (inactive)

Question: And the GI50 (KM12)?
Answer: > 100 µM (inactive)

Question: What about the GI50 (RXF 631) of the same molecule?
Answer: > 100 µM (inactive)

Question: And the GI50 (UACC-257)?
Answer: > 100 µM (inactive)

Question: What about the GI50 (SNB-19) of the same molecule?
Answer: > 100 µM (inactive)

Question: And the GI50 (A498)?
Answer: > 100 µM (inactive)

Question: And the GI50 (HL-60)?
Answer: > 100 µM (inactive)

Question: What about the GI50 (HT-29) of the same molecule?
Answer: > 100 µM (inactive)

Question: And the GI50 (SF-268)?
Answer: > 100 µM (inactive)

Question: What about the GI50 (HCT-15) of the same molecule?
Answer: > 100 µM

Question: And the GI50 (SF-295)?
Answer: > 100 µM (inactive)

Question: What about the GI50 (HCT-116) of the same molecule?
Answer: > 100 µM (inactive)

Question: And the GI50 (IGROV-1)?
Answer: > 100 µM (inactive)

Question: And the GI50 (786-0)?
Answer: > 100 µM (inactive)

Question: What about the GI50 (UACC-62) of the same molecule?
Answer: > 100 µM (inactive)

Question: What about the GI50 (SR) of the same molecule?
Answer: > 100 µM (inactive)

Question: And the GI50 (KM-20L2)?
Answer: > 100 µM (inactive)

Question: What about the GI50 (A549) of the same molecule?
Answer: > 100 µM (inactive)

Question: And the GI50 (SK-OV-3)?
Answer: > 100 µM (inactive)

Question: And the GI50 (OVCAR-4)?
Answer: > 100 µM (inactive)

Question: What about the GI50 (NCI-H23) of the same molecule?
Answer: > 100 µM (inactive)

Question: What about the GI50 (EKVX) of the same molecule?
Answer: > 100 µM (inactive)

Question: What about the GI50 (SNB-78) of the same molecule?
Answer: > 100 µM (inactive)

Question: What about the GI50 (DMS-114) of the same molecule?
Answer: > 100 µM (inactive)

Question: And the GI50 (COLO 205)?
Answer: > 100 µM (inactive)

Question: And the GI50 (M19-MEL)?
Answer: > 100 µM (inactive)

Question: And the GI50 (DMS-273)?
Answer: > 100 µM (inactive)

Question: What about the GI50 (RXF 393) of the same molecule?
Answer: > 100 µM (inactive)

Question: What about the GI50 (SF-539) of the same molecule?
Answer: > 100 µM (inactive)

Question: What about the GI50 (DLD-1) of the same molecule?
Answer: > 100 µM (inactive)

Question: And the GI50 (SK-MEL-2)?
Answer: > 100 µM (inactive)

Question: What about the GI50 (OVCAR-3) of the same molecule?
Answer: > 100 µM (inactive)

Question: And the GI50 (LXFL 529)?
Answer: > 100 µM (inactive)

Question: What about the GI50 (SN12C) of the same molecule?
Answer: > 100 µM (inactive)

Question: And the GI50 (NCI-H522)?
Answer: > 100 µM (inactive)

Question: And the GI50 (LOX IMVI)?
Answer: > 100 µM (inactive)

Question: And the GI50 (HCC 2998)?
Answer: > 100 µM (inactive)

Question: What about the GI50 (HOP-18) of the same molecule?
Answer: > 100 µM (inactive)

Question: What about the GI50 (CAKI-1) of the same molecule?
Answer: > 100 µM (inactive)

Question: And the GI50 (HOP-62)?
Answer: > 100 µM (inactive)

Question: For `CCOc1ccc(NC(=O)C(=O)CC(=O)c2sc(NNC(C)=O)nc2C)cc1`, which GI50 (TK-10) is on record?
Answer: > 100 µM (inactive)

Question: What about the GI50 (M14) of the same molecule?
Answer: > 100 µM (inactive)

Question: And the GI50 (RPMI-8226)?
Answer: > 100 µM (inactive)

Question: What about the GI50 (UO-31) of the same molecule?
Answer: > 100 µM (inactive)

Question: What about the GI50 (HOP-92) of the same molecule?
Answer: > 100 µM (inactive)

Question: What about the GI50 (OVCAR-8) of the same molecule?
Answer: > 100 µM (inactive)

Question: What about the GI50 (NCI-H460) of the same molecule?
Answer: > 100 µM (inactive)

Question: What about the GI50 (K562) of the same molecule?
Answer: > 100 µM (inactive)

Question: And the GI50 (NCI-H226)?
Answer: > 100 µM (inactive)

Question: And the GI50 (SW-620)?
Answer: > 100 µM (inactive)

Question: What about the GI50 (OVCAR-5) of the same molecule?
Answer: > 100 µM (inactive)

Question: What about the GI50 (ACHN) of the same molecule?
Answer: > 100 µM (inactive)

Question: And the GI50 (U-251)?
Answer: > 100 µM (inactive)

Question: What about the GI50 (KM12) of the same molecule?
Answer: > 100 µM (inactive)

Question: And the GI50 (RXF 631)?
Answer: > 100 µM (inactive)

Question: What about the GI50 (UACC-257) of the same molecule?
Answer: > 100 µM (inactive)

Question: And the GI50 (SNB-19)?
Answer: > 100 µM (inactive)

Question: What about the GI50 (A498) of the same molecule?
Answer: > 100 µM (inactive)

Question: What about the GI50 (HL-60) of the same molecule?
Answer: > 100 µM (inactive)

Question: What about the GI50 (HT-29) of the same molecule?
Answer: > 100 µM (inactive)

Question: And the GI50 (SF-268)?
Answer: > 100 µM (inactive)

Question: What about the GI50 (HCT-15) of the same molecule?
Answer: > 100 µM

Question: And the GI50 (CCRF-CEM)?
Answer: > 100 µM (inactive)

Question: And the GI50 (SF-295)?
Answer: > 100 µM (inactive)

Question: What about the GI50 (HCT-116) of the same molecule?
Answer: > 100 µM (inactive)

Question: And the GI50 (IGROV-1)?
Answer: > 100 µM (inactive)

Question: And the GI50 (UACC-62)?
Answer: > 100 µM (inactive)

Question: And the GI50 (SR)?
Answer: > 100 µM (inactive)

Question: And the GI50 (MOLT-4)?
Answer: > 100 µM (inactive)

Question: And the GI50 (XF498)?
Answer: > 100 µM (inactive)

Question: And the GI50 (SK-MEL-5)?
Answer: > 100 µM (inactive)

Question: What about the GI50 (KM-20L2) of the same molecule?
Answer: > 100 µM (inactive)

Question: What about the GI50 (SNB-75) of the same molecule?
Answer: > 100 µM (inactive)

Question: And the GI50 (A549)?
Answer: > 100 µM (inactive)

Question: What about the GI50 (SK-OV-3) of the same molecule?
Answer: > 100 µM (inactive)

Question: And the GI50 (OVCAR-4)?
Answer: > 100 µM (inactive)

Question: And the GI50 (NCI-H23)?
Answer: > 100 µM (inactive)

Question: And the GI50 (EKVX)?
Answer: 40.9 µM (inactive)

Question: What about the GI50 (SNB-78) of the same molecule?
Answer: > 100 µM (inactive)

Question: And the GI50 (COLO 205)?
Answer: > 100 µM (inactive)

Question: What about the GI50 (M19-MEL) of the same molecule?
Answer: > 100 µM (inactive)

Question: What about the GI50 (DMS-273) of the same molecule?
Answer: > 100 µM (inactive)

Question: And the GI50 (RXF 393)?
Answer: > 100 µM (inactive)

Question: And the GI50 (SF-539)?
Answer: > 100 µM (inactive)

Question: And the GI50 (DLD-1)?
Answer: > 100 µM (inactive)

Question: And the GI50 (SK-MEL-2)?
Answer: > 100 µM (inactive)

Question: And the GI50 (SK-MEL-28)?
Answer: > 100 µM (inactive)

Question: What about the GI50 (LXFL 529) of the same molecule?
Answer: > 100 µM (inactive)

Question: And the GI50 (SN12C)?
Answer: > 100 µM (inactive)

Question: And the GI50 (NCI-H522)?
Answer: > 100 µM (inactive)

Question: What about the GI50 (LOX IMVI) of the same molecule?
Answer: > 100 µM (inactive)

Question: What about the GI50 (HCC 2998) of the same molecule?
Answer: > 100 µM (inactive)

Question: What about the GI50 (CAKI-1) of the same molecule?
Answer: > 100 µM (inactive)

Question: What about the GI50 (HOP-62) of the same molecule?
Answer: > 100 µM (inactive)
